{
  "source": "patent US7375086B2",
  "about": "“Modulators of Nod2 signaling” (The Regents of the University of Michigan, priority 2000, dated 2008)",
  "key": {"Nod2-Fpk3": {"tested_on": "Nod2-Fpk3", "assay": "Enforced oligomerization of Fpk3-Nod2 chimeric proteins, NF-κB reporter in HEK293T cells", "type": "cell-based, human", "description": "HEK293T cells were transfected with of control plasmid (−) or plasmids producing the indicated Myc-tagged Fpk3Nod2 proteins. Extracts from equal number of cells was immunoprecipitated and immunoblotted with rabbit anti-Myc antibody. […] 2×10^5 HEK293T cells were transfected with 1 ng of the indicated plasmids in the presence of pBVIx-luc and pEF-BOS-β-gal. 8 hr post-transfection, cells were treated with 500 nM AP1510 (black bars) or left untreated (white bars). 24 hr post-transfection, the κB-dependent transcription was determined as described below. Values represent mean ±SD of triplicate cultures.\nIn the case of Nod1, its oligomerization appears to promote proximity of RICK and NF-κB activation. To test a similar role for Nod2, plasmids were constructed to express chimeric proteins in which wt or Nod2 mutants were fused to three tandem repeated dimerization domains of Fpk (Fpk3), which can be oligomerized by the cell-permeable ligand AP1510 (MacCorkle et al., Proc. Nat. Acad. Sci. U. S. A. 95: 3655-3660 [1998]). […] Because wt Nod2 alone induces NF-KB activation, we expressed suboptimal amounts of the chimeric Fpk3-Nod2 constructs into HEK293T cells. […] Similarly, NF-κB activation induced by a Nod2 P-loop mutant lacking the LRRs (K305RALRR), which have reduced ability to induce NF-κB activation, was enhanced by enforced oligomerization (FIG. 7C). […]"}, "NF-κB [1]": {"tested_on": "NF-κB", "assay": "NF-κB binding activity by EMSA in nuclear extracts of PBMNC", "type": "cell-based, human", "conditions": "PBMNC nuclear extracts, EMSA", "description": "FIGS. 20C and D show PBMNC analyzed for expression of IL-1β (C) and A1 (D) transcripts by quantitative RT-PCR.\nGenotyping was performed using a ddNTP primer extension system. Nuclear extracts from LPS-stimulated cells were pre-incubated with antibody specific for p50 subunit of NF-κB to monitor the size of the NF-κB-DNA complex. cDNA was amplified with specific primers for human IL-1β, glyceraldehyde-3-phosphate-dehydrogenase (GAPDH) as described (5) and A1 (5′-[…]-3′ (SEQ ID NO: 53) and 5′-[…]-3′ (SEQ ID NO:54)). The levels of IL-1β and A1 transcripts normalized to that of GAPDH were expressed relative to those in untreated cells that were considered as baseline. Specificity of the desired PCR products was determined by melting curve analysis. Histograms represent the mean ±S.D. of triplicate analyses.\nThe NOD2 variants associated with Crohn's disease, R702W, G908R and L1007fsinsC, occur on the same haplotype background, which includes the common P268S polymorphism (Hugot et al., Nature 411:599 [2001]; Ogura et al., Nature 411:603 [2001]). To compare the ability of normal and mutant NOD2 proteins to induce NF-κB activity in response to MDP, the NOD2 proteins were expressed in cells and evaluated in a functional assay. […] The role of NOD2 in the recognition of MDP by primary cells from normal and Crohn's disease patients was next determined. A panel of healthy and Crohn's disease individuals were genotyped for the disease-associated NOD2 alleles and two individuals (one without clinical evidence of disease and one individual with Crohn's disease) who were homozygous for the loss-of-function L1007fsinsC mutation were identified (FIG. 20A). The identification of apparently healthy individuals homozygous for L1007fsinsC is expected in that the penetrance of the L1007fsinsC mutation is not complete (Hugot et al., supra; Ogura et al., supra; Hampe et al., Lancet 357:1925 [2001]; Ahmad et al., Gastroenterology 122:854 [2002]). Peripheral blood mononuclear cells (PBMNC) that are known to express NOD2 were isolated, incubated with MDP or LPS and NF-κB activation was assessed in nuclear extracts by an electrophoretic mobility shift assay (EMSA)."}, "Nod2": {"molecular_target": "T1, Nod2 (Homo sapiens, UniProt Q9HC29, R703H)", "T1 construct": "ligated to generate an unique cDNA containing the entire open reading frame of Nod2; expressed in transfected cells; host or cells: HEK293T", "T1 sequence (Q9HC29 whole entry R703H)": "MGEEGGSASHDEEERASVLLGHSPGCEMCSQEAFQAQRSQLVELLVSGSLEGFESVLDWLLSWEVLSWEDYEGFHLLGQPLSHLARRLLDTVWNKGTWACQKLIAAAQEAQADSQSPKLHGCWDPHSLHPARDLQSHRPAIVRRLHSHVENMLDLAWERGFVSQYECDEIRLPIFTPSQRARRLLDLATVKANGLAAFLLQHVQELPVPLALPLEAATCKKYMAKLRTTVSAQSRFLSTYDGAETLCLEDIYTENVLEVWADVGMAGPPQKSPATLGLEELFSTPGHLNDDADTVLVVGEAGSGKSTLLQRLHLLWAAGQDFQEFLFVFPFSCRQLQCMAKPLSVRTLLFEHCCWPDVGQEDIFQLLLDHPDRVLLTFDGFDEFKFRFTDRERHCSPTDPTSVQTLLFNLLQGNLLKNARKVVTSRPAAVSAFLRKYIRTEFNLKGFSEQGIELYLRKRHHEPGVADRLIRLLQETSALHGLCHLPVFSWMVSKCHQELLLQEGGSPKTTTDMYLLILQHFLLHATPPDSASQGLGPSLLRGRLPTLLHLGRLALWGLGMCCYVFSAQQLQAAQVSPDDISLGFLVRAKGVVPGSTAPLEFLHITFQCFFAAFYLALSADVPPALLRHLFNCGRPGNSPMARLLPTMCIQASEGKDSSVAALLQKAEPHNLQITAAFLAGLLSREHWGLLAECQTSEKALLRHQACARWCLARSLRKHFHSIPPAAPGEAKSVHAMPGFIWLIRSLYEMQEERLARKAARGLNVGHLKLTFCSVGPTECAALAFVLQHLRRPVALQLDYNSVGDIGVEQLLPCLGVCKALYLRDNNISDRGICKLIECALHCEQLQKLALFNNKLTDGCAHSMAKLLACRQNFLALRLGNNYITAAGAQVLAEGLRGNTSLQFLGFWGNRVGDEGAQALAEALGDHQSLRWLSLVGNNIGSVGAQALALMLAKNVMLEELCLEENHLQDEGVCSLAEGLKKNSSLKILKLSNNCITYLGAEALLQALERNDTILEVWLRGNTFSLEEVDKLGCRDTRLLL", "assay": "NF-κB reporter assay in HEK293T/HEK293 cells expressing Nod2", "type": "cell-based", "conditions": "100 ng/ml (FIG. 18C)"}, "TLR2": {"molecular_target": "T2, TLR2 (Homo sapiens, UniProt O60603)", "T2 construct": "expressed in transfected cells", "T2 sequence (O60603 21-784, species assumed)": "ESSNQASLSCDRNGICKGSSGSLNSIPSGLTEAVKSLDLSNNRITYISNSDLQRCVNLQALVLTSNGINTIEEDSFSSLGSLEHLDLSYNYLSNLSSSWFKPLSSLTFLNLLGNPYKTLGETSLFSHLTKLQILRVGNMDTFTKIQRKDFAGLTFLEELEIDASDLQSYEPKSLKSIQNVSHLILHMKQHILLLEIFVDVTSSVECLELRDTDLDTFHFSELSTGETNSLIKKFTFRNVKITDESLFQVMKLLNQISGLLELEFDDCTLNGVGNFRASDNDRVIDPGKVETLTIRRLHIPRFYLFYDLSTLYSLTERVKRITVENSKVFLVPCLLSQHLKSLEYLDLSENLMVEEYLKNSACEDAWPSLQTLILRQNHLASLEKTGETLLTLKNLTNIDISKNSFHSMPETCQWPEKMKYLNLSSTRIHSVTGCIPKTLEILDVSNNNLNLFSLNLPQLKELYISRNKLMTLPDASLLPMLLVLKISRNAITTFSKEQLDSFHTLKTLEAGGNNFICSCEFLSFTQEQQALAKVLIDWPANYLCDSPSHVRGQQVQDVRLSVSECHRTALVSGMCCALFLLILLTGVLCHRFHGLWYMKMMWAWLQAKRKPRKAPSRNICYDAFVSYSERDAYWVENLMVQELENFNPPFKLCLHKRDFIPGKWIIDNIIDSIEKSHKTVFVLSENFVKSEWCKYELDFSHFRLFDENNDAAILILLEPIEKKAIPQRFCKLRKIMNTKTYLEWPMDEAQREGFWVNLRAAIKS", "assay": "NF-κB reporter assay in HEK293 cells stably transfected with TLR2", "type": "cell-based", "conditions": "MDP 100 ng/ml, sBLP 1000 ng/ml", "description": "Molecules with two copies (2mer) or four copies (4mer) of GlcNAc-MurNAc with attached L-Ala-D-isoGln and their counterparts lacking dipeptide (2mer-aa, 4mer-aa) were synthesized as described (Inamura et al., Tetrahedron Lett. 42:7613 [2001]). Eight hours post-transfection, the indicated amount of each compound was added to the cells and the ability of each compound to activate NF-κB was determined as above. The ability of MDP (100 ng/ml) and sBLP (1000 ng/ml) to activate NF-κB was determined by transfection of 0.3 ng pcDNA3-Nod2 (Nod2) or control plasmid (−) into HEK293 cells or in HEK293 cells stably transfected with TLR2 (TLR2) or with control plasmid (−) and reporter pBxIV-luc and pEF-BOS-β-gal plasmids. Values represent the mean of normalized data ±S.D. of triplicate cultures."}, "NF-κB [2]": {"tested_on": "NF-κB", "assay": "NF-κB luciferase reporter assay in HEK293T cells transfected with control plasmid", "type": "cell-based, human", "description": "Induction of NF-κB activation was determined in triplicate cultures of HEK293T cells transfected with 30 ng of Nod2 plasmid (open bars) or stimulated with 10 ng/ml of TNFα for 4 h (closed bars) and 70 ng of I-κBα S32A/S36A, IKKα K44A, IKKβ K44A, RICK (406-540) or RIP (558-671) expression plasmid in the presence of pBVIx-Luc and pEF-BOS-β-gal. Results are presented as a percent of values obtained with Nod2 and control plasmid. In the experiment shown, Nod2 and TNFα induced 58±8-fold and 14±1-fold activation of NF-κB, respectively. Values represent mean ±SD of triplicate cultures. […] Induction of NF-κB activation was determined from triplicate cultures of I×10^5 HEK293T cells co-transfected with the indicated plasmids and pBVIx-Luc in the presence of control plasmid pEF-BOS-β-gal. […]\n8 hr post-transfection, cells were treated with 10 μg/ml of each pathogen product, lipoteichoic acid (LTA) or peptidoglycan (PGN) from Staphylococcus aureus, lipopolysaccharide (LPS) from Escherichia coli 055:B5, mannan from Candida albicans 20A, synthetic soluble bacterial lipoprotein (SBLP) or left untreated (Control). 24 hr post-transfection, κB-dependent transcription was determined by luciferase activity relative and values normalized to β-galactosidase in triplicate cultures. […] Twenty-four hr post-transfection, κB-dependent transcription was determined as described above. […]"}, "NF-κB [3]": {"tested_on": "NF-κB", "assay": "NF-κB reporter assay in parental Rat1 fibroblasts", "type": "cell-based, rat", "description": "Induction of NF-κB activation was determined in triplicate cultures of HEK293T cells transfected with 30 ng of Nod2 plasmid (open bars) or stimulated with 10 ng/ml of TNFα for 4 h (closed bars) and 70 ng of I-κBα S32A/S36A, IKKα K44A, IKKβ K44A, RICK (406-540) or RIP (558-671) expression plasmid in the presence of pBVIx-Luc and pEF-BOS-β-gal. Results are presented as a percent of values obtained with Nod2 and control plasmid. In the experiment shown, Nod2 and TNFα induced 58±8-fold and 14±1-fold activation of NF-κB, respectively. Values represent mean ±SD of triplicate cultures. […] Induction of NF-κB activation was determined from triplicate cultures of I×10^5 HEK293T cells co-transfected with the indicated plasmids and pBVIx-Luc in the presence of control plasmid pEF-BOS-β-gal. Values represent mean ±SD of triplicate cultures.\nNF-κB activation assays. NF-κB activation assays were performed as described (Inohara et al., [1999] supra, Inohara et al., [2000], supra). […] 24 hr post-transfection, cell extracts were prepared and its relative luciferase activity was measured as described (Inohara et al., [1999] supra, Inohara et al., [2000], supra). […]"}},
  "data": [
    {"molecule": "CCC(C)(C)C(=O)C(=O)N1CCCC[C@H]1C(=O)O[C@H](CCc1ccc(OC)c(OC)c1)c1cccc(OCC(=O)NCCNC(=O)COc2cccc([C@@H](CCc3ccc(OC)c(OC)c3)OC(=O)[C@@H]3CCCCN3C(=O)C(=O)C(C)(C)CC)c2)c1", "note": "[AP1510]", "values": [
      {"measurement": "NF-κB activation by Nod2-Fpk3 upon ligand", "setting": "Nod2-Fpk3; 500 nM AP1510, suboptimal amounts (1 ng) of plasmid", "value": "induced NF-KB activation in a ligand-dependent manner"},
      {"measurement": "NF-κB activation by Nod2-Fpk3 construct lacking the LRRs", "setting": "Nod2-Fpk3; 500 nM AP1510 or untreated", "value": "induced NF-κB activation in the absence and presence of AP1510"}
    ]},
    {"molecule": "Cc1ccc(S(=O)(=O)/C=C/C#N)cc1", "note": "[Bay11-7082]", "values": [
      {"measurement": "inhibition of the DNA binding complex induced by MDP", "setting": "NF-κB [1]", "value": "inhibited"}
    ]},
    {"molecule": "CC(=O)NC1C(O)OC(CO)C(O)C1OC(C)C(=O)NC(C)C(=O)NC(CCC(=O)O)C(N)=O", "note": "[MurNAc-L-Ala-L-isoGln]", "values": [
      {"measurement": "ability to stimulate NOD2 (stereoselectivity)", "setting": "Nod2", "value": "eliminated the ability of MDP to stimulate NOD2"}
    ]},
    {"molecule": "PaM3CysSerLyS4 [SBLP]", "values": [
      {"measurement": "TLR2-mediated cellular response (NF-κB)", "setting": "TLR2", "value": "mediated a cellular response"},
      {"measurement": "induction of NF-κB reporter gene activity", "setting": "NF-κB [2]; HEK293T cells transfected with control plasmid, 10 μg/ml of each pathogen product", "value": "No significant induction of reporter gene activity"}
    ]},
    {"molecule": "TNFα", "values": [
      {"measurement": "NF-κB activity in parental Rat1 cells", "setting": "NF-κB [3]", "value": "induced NF-κB activity"},
      {"measurement": "activation of NF-κB", "setting": "NF-κB [2]; HEK293T cells stimulated with 10 ng/ml of TNFα for 4 h", "value": "14±1", "unit": "fold"}
    ]}
  ]
}
